Results from patent US12559529B2, “NPY2 receptor agonists” (Boehringer Ingelheim International GmbH, priority 2019, dated 2026).

Molecular target: T1, Human Neuropeptide Y2 Receptor (Homo sapiens, UniProt P49146)
T1 construct: purchased CHEMICON HTS066M
T1 sequence (P49146 1-381): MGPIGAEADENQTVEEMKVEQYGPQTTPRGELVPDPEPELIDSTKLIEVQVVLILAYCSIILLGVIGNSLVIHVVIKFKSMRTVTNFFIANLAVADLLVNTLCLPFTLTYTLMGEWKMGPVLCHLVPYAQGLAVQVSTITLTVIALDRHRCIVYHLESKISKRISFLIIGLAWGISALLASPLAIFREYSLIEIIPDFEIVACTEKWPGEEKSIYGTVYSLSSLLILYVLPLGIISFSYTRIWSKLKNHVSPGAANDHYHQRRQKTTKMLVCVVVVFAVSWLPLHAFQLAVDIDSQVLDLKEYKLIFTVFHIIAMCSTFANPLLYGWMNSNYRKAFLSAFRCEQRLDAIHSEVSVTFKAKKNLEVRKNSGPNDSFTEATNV
Assay: Radioligand binding competition assay (RLB)
Conditions: Table 3; human 125I-PYY (1-36) 0.02 nM, Y2 receptor membranes; read-out: Ki
Method in brief: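 Competition binding at commercial human NPY Y2 membrane preparations, 0.5 μg protein per well, 2 h incubation at room temperature. Bound and free ligand were separated on GF/C filters and counted; IC50 was fitted by nonlinear regression.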

Ki	SMILES
9.61 nM	CC(C)CC(=O)N[C@@H](C)C(=O)N1CCC[C@H]1C(=O)N[C@@H](CCC(=O)O)C(=O)N[C@@H](CCCCNC(=O)COCCOCCNC(=O)COCCOCCNC(=O)CC[C@H](NC(=O)CCCCCCCCCCCCCCCCC(=O)O)C(=O)O)C(=O)N1CCC[C@H]1C(=O)N[C@@H](CCC(=O)O)C(=O)N[C@@H](CCC(=O)O)C(=O)N[C@@H](CCC(=O)O)C(=O)N[C@@H](C)C(=O)N[C@@H](CCC(=O)O)C(=O)N1CCC[C@H]1C(=O)N[C@@H](CCC(=O)O)C(=O)N[C@@H](CCC(=O)O)C(=O)N[C@@H](CC(C)C)C(=O)N[C@@H](CCC(N)=O)C(=O)N[C@@H](CCCNC(=N)N)C(=O)N[C@@H](Cc1ccc(O)cc1)C(=O)N[C@@H](Cc1ccc(O)cc1)C(=O)N[C@H](C(=O)N[C@@H](CO)C(=O)N[C@@H](CC(C)C)C(=O)N[C@@H](CCCNC(=N)N)C(=O)N[C@@H](Cc1c[nH]cn1)C(=O)N[C@@H](Cc1ccc(O)cc1)C(=O)N[C@@H](Cc1ccc(O)cc1)C(=O)N[C@@H](CC(N)=O)C(=O)N[C@@H](Cc1c[nH]c2ccccc12)C(=O)N[C@@H](CC(C)C)C(=O)N[C@H](C(=O)N[C@@H](CCCNC(=N)N)C(=O)N[C@@H](CCC(N)=O)C(=O)N[C@@H](CCCNC(=N)N)C(=O)N[C@@H](Cc1ccc(O)cc1)C(N)=O)[C@@H](C)O)C(C)C [Compound 89, N{alpha-4}-(3-methylbutanoyl)-N{epsilon-7}-[2-(2-{2-[2-(2-{2-[(4S)-4-carboxy-4-(17-carboxyheptadecanamido)butanamido]ethoxy}ethoxy)acetamido]ethoxy}ethoxy)acetamido]-[4A,7K,9E,11E,13E,18Q,22V,28Y,30W,31L]hPYY (4-36)]
1.57 nM	CC(C)CC(=O)N[C@@H](C)C(=O)N1CCC[C@H]1C(=O)N[C@@H](CCC(=O)O)C(=O)N[C@@H](CCCCNC(=O)COCCOCCNC(=O)COCCOCCNC(=O)CC[C@H](NC(=O)CCCCCCCCCCCCCCCCC(=O)O)C(=O)O)C(=O)N1CCC[C@H]1C(=O)N[C@@H](CCC(=O)O)C(=O)N[C@@H](CCC(=O)O)C(=O)N[C@@H](CC(=O)O)C(=O)N[C@H](C(=O)N[C@@H](CO)C(=O)N1CCC[C@H]1C(=O)N[C@@H](CCC(=O)O)C(=O)N[C@@H](CCC(=O)O)C(=O)N[C@@H](CC(C)C)C(=O)N[C@@H](CCC(N)=O)C(=O)N[C@@H](CCCNC(=N)N)C(=O)N[C@@H](Cc1ccc(O)cc1)C(=O)N[C@@H](Cc1ccc(O)cc1)C(=O)N[C@H](C(=O)N[C@@H](CO)C(=O)N[C@@H](CC(C)C)C(=O)N[C@@H](CCCNC(=N)N)C(=O)N[C@@H](Cc1c[nH]cn1)C(=O)N[C@@H](Cc1ccc(O)cc1)C(=O)N[C@@H](Cc1ccc(O)cc1)C(=O)N[C@@H](CC(N)=O)C(=O)N[C@@H](Cc1c[nH]c2ccccc12)C(=O)N[C@@H](CC(C)C)C(=O)N[C@H](C(=O)N[C@@H](CCCNC(=N)N)C(=O)N[C@@H](CCC(N)=O)C(=O)N[C@@H](CCCNC(=N)N)C(=O)N[C@@H](Cc1ccc(O)cc1)C(N)=O)[C@@H](C)O)C(C)C)[C@@H](C)O [Compound 92, N{alpha-4}-(3-methylbutanoyl)-N{epsilon-7}-[2-(2-{2-[2-(2-{2-[(4S)-4-carboxy-4-(17-carboxyheptadecanamido)butanamido]ethoxy}ethoxy)acetamido]ethoxy}ethoxy)acetamido]-[4A,7K,9E,12T,18Q,22V,28Y,30W,31L]hPYY (4-36)]
2.07 nM	CC(C)CC(=O)N[C@@H](C)C(=O)N1CCC[C@H]1C(=O)N[C@@H](CCC(=O)O)C(=O)N[C@@H](CCCCNC(=O)COCCOCCNC(=O)COCCOCCNC(=O)CC[C@H](NC(=O)CCCCCCCCCCCCCCCCC(=O)O)C(=O)O)C(=O)N1CCC[C@H]1C(=O)N[C@@H](CCC(=O)O)C(=O)N[C@@H](CCC(=O)O)C(=O)N[C@@H](CC(=O)O)C(=O)N[C@@H](C)C(=O)N[C@@H](CO)C(=O)N1CCC[C@H]1C(=O)N[C@@H](CCC(=O)O)C(=O)N[C@@H](CCC(=O)O)C(=O)N[C@H](C(=O)N[C@@H](CCC(N)=O)C(=O)N[C@@H](CCCNC(=N)N)C(=O)N[C@@H](Cc1ccc(O)cc1)C(=O)N[C@@H](Cc1ccc(O)cc1)C(=O)N[C@H](C(=O)N[C@@H](CCC(=O)O)C(=O)N[C@@H](CC(C)C)C(=O)N[C@@H](CCCNC(=N)N)C(=O)N[C@@H](Cc1c[nH]cn1)C(=O)N[C@@H](Cc1ccc(O)cc1)C(=O)N[C@@H](Cc1ccc(O)cc1)C(=O)N[C@@H](CC(N)=O)C(=O)N[C@@H](Cc1c[nH]c2ccccc12)C(=O)N[C@@H](CC(C)C)C(=O)N[C@H](C(=O)N[C@@H](CCCNC(=N)N)C(=O)N[C@@H](CCC(N)=O)C(=O)N[C@@H](CCCNC(=N)N)C(=O)N[C@@H](Cc1ccc(O)cc1)C(N)=O)[C@@H](C)O)C(C)C)[C@@H](C)O [Compound 94, N{alpha-4}-(3-methylbutanoyl)-N{epsilon-7}-[2-(2-{2-[2-(2-{2-[(4S)-4-carboxy-4-(17-carboxyheptadecanamido)butanamido]ethoxy}ethoxy)acetamido]ethoxy}ethoxy)acetamido]-[4A,7K,9E,17T,18Q,22V,23E,28Y,30W,31L]hPYY (4-36)]
0.66 nM	CC[C@H](C)[C@H](NC(=O)[C@H](CCC(=O)O)NC(=O)[C@H](C)NC(=O)[C@@H]1CCCN1C(=O)[C@H](CO)NC(=O)[C@H](C)NC(=O)[C@H](CC(=O)O)NC(=O)[C@H](CCC(=O)O)NC(=O)[C@H](CCC(=O)O)NC(=O)[C@@H]1CCCN1C(=O)[C@H](CCCCNC(=O)COCCOCCNC(=O)COCCOCCNC(=O)CC[C@H](NC(=O)CCCCCCCCCCCCCCCCC(=O)O)C(=O)O)NC(=O)[C@H](CCC(=O)O)NC(=O)[C@@H]1CCCN1C(=O)[C@H](C)NC(=O)CC(C)C)C(=O)N[C@@H](CCC(N)=O)C(=O)N[C@@H](CCCNC(=N)N)C(=O)N[C@@H](Cc1ccc(O)cc1)C(=O)N[C@@H](Cc1ccc(O)cc1)C(=O)N[C@H](C(=O)N[C@@H](CO)C(=O)N[C@@H](CC(C)C)C(=O)N[C@@H](CCCNC(=N)N)C(=O)N[C@@H](Cc1c[nH]cn1)C(=O)N[C@@H](Cc1ccc(O)cc1)C(=O)N[C@@H](Cc1ccc(O)cc1)C(=O)N[C@@H](CC(N)=O)C(=O)N[C@@H](Cc1c[nH]c2ccccc12)C(=O)N[C@@H](CC(C)C)C(=O)N[C@H](C(=O)N[C@@H](CCCNC(=N)N)C(=O)N[C@@H](CCC(N)=O)C(=O)N[C@@H](CCCNC(=N)N)C(=O)N[C@@H](Cc1ccc(O)cc1)C(N)=O)[C@@H](C)O)C(C)C [Compound 95, N{alpha-4}-(3-methylbutanoyl)-N{epsilon-7}-[2-(2-{2-[2-(2-{2-[(4S)-4-carboxy-4-(17-carboxyheptadecanamido)butanamido]ethoxy}ethoxy)acetamido]ethoxy}ethoxy)acetamido]-[4A,7K,9E,15A,17I,18Q,22V,28Y,30W,31L]hPYY (4-36)]
0.44 nM	CC(C)CC(=O)N[C@@H](C)C(=O)N1CCC[C@H]1C(=O)N[C@@H](C)C(=O)N[C@@H](CCCCNC(=O)COCCOCCNC(=O)COCCOCCNC(=O)CC[C@H](NC(=O)CCCCCCCCCCCCCCCCC(=O)O)C(=O)O)C(=O)N1CCC[C@H]1C(=O)N1CCC[C@H]1C(=O)N[C@@H](CCC(=O)O)C(=O)N[C@@H](CC(=O)O)C(=O)N[C@@H](C)C(=O)N[C@@H](CO)C(=O)N1CCC[C@H]1C(=O)N[C@@H](CCC(=O)O)C(=O)N[C@@H](CCC(=O)O)C(=O)N[C@@H](CC(C)C)C(=O)N[C@@H](CCC(N)=O)C(=O)N[C@@H](CCCNC(=N)N)C(=O)N[C@@H](Cc1ccc(O)cc1)C(=O)N[C@@H](Cc1ccc(O)cc1)C(=O)N[C@H](C(=O)N[C@@H](CO)C(=O)N[C@@H](CC(C)C)C(=O)N[C@@H](CCCNC(=N)N)C(=O)N[C@@H](Cc1c[nH]cn1)C(=O)N[C@@H](Cc1ccc(O)cc1)C(=O)N[C@@H](Cc1ccc(O)cc1)C(=O)N[C@@H](CC(N)=O)C(=O)N[C@@H](Cc1c[nH]c2ccccc12)C(=O)N[C@@H](CC(C)C)C(=O)N[C@H](C(=O)N[C@@H](CCCNC(=N)N)C(=O)N[C@@H](CCC(N)=O)C(=O)N[C@@H](CCCNC(=N)N)C(=O)N[C@@H](Cc1ccc(O)cc1)C(N)=O)[C@@H](C)O)C(C)C [Compound 100, N{alpha-4}-(3-methylbutanoyl)-N{epsilon-7}-[2-(2-{2-[2-(2-{2-[(4S)-4-carboxy-4-(17-carboxyheptadecanamido)butanamido]ethoxy}ethoxy)acetamido]ethoxy}ethoxy)acetamido]-[4A,6A,7K,9P,18Q,22V,28Y,30W,31L]hPYY (4-36)]
0.87 nM	CC(C)CC(=O)N[C@@H](C)C(=O)N1CCC[C@H]1C(=O)N[C@@H](CCC(=O)O)C(=O)N[C@@H](CCCCNC(=O)COCCOCCNC(=O)COCCOCCNC(=O)CC[C@H](NC(=O)CCCCCCCCCCCCCCCCC(=O)O)C(=O)O)C(=O)N1CCC[C@H]1C(=O)N[C@@H](CCC(=O)O)C(=O)N[C@@H](CCC(=O)O)C(=O)N[C@@H](CC(=O)O)C(=O)N[C@@H](C)C(=O)N[C@@H](CO)C(=O)N1CCC[C@H]1C(=O)N[C@@H](CCC(=O)O)C(=O)N[C@@H](CCC(=O)O)C(=O)N[C@@H](CC(C)C)C(=O)N[C@@H](CCC(N)=O)C(=O)N[C@@H](CCCNC(=N)N)C(=O)N[C@@H](Cc1ccc(O)cc1)C(=O)N[C@@H](Cc1ccc(O)cc1)C(=O)N[C@H](C(=O)N[C@H](C(=O)N[C@@H](CC(C)C)C(=O)N[C@@H](CCCNC(=N)N)C(=O)N[C@@H](Cc1c[nH]cn1)C(=O)N[C@@H](Cc1ccc(O)cc1)C(=O)N[C@@H](Cc1ccc(O)cc1)C(=O)N[C@@H](CC(N)=O)C(=O)N[C@@H](Cc1c[nH]c2ccccc12)C(=O)N[C@@H](CC(C)C)C(=O)N[C@H](C(=O)N[C@@H](CCCNC(=N)N)C(=O)N[C@@H](CCC(N)=O)C(=O)N[C@@H](CCCNC(=N)N)C(=O)N[C@@H](Cc1ccc(O)cc1)C(N)=O)[C@@H](C)O)[C@@H](C)O)C(C)C [Compound 102, N{alpha-4}-(3-methylbutanoyl)-N{epsilon-7}-[2-(2-{2-[2-(2-{2-[(4S)-4-carboxy-4-(17-carboxyheptadecanamido)butanamido]ethoxy}ethoxy)acetamido]ethoxy}ethoxy)acetamido]-[4A,7K,9E,18Q,22V,23T,28Y,30W,31L]hPYY (4-36)]
